Test results reported in ChEMBL document CHEMBL4825682, “Discovery of novel purinylthiazolylethanone derivatives as anti-Candida albicans agents through possible multifaceted mechanisms” (Eur J Med Chem, 2021).
In brackets after ≈: the same amount, converted by molar mass. Activity calls are given as the source filed them. The rule behind the calls is not given here.

Columns and labels:
[1] = test system: Candida albicans; assay: Antifungal activity against Candida albicans assessed as fungal growth inhibition by CLSI protocol based microbroth dilution method; assay type: functional
[2] = test system: Candida albicans; assay: Antifungal activity against Candida albicans ATCC 90023 assessed as fungal growth inhibition by CLSI protocol based microbroth dilution method; assay type: functional
[3] = test system: Candida tropicalis; assay: Antifungal activity against Candida tropicalis assessed as fungal growth inhibition by CLSI protocol based microbroth dilution method; assay type: functional
[4] = test system: Aspergillus fumigatus; assay: Antifungal activity against Aspergillus fumigatus assessed as fungal growth inhibition by CLSI protocol based microbroth dilution method; assay type: functional
[5] = test system: Candida parapsilosis; assay: Antifungal activity against Candida parapsilosis ATCC 22019 assessed as fungal growth inhibition by CLSI protocol based microbroth dilution method; assay type: functional; details: Lodderomyces parapsilosis
[6] = Hemolytic activity in human RBC; assay type: cell-based, Erythrocyte; details: human red blood cells (erythrocytes)
[7] = Hemolytic activity in human RBC at MIC relative to control; assay type: ADME, cell-based, Erythrocyte; details: human red blood cells (erythrocytes), read-out: Activity
[8] = Hemolytic activity in human RBC at 8 times MIC relative to control; assay type: ADME, cell-based, Erythrocyte; details: human red blood cells (erythrocytes), read-out: Activity
[9] = test system: L02; assay: Cytotoxicity against human L02 cells assessed as increase in cell viability measured after 72 hrs by CCK8 assay relative to control; assay type: cell-based; details: l02, 72 h
[10] = test system: L02; assay: Cytotoxicity against human L02 cells at 100 ug/ml measured after 72 hrs by CCK8 assay; assay type: cell-based; details: l02, 72 h, dose 100 µg/ml
[11] = test system: Candida albicans; assay: Antifungal activity against Candida albicans measured after 16 passages; assay type: functional, organism-based
[12] = test system: Candida tropicalis; assay: Potentiation of fluconazole-induced antifungal activity against Candida tropicalis assessed as fluconazole MIC (reference value: […] ug/ml); assay type: functional
[13] = test system: Candida albicans; assay: Synergistic antifungal activity against Candida albicans assessed as fractional inhibitory concentration index in presence of fluconazole; assay type: functional
[14] = test system: Candida albicans; assay: Potentiation of fluconazole-induced antifungal activity against Candida albicans assessed as fluconazole MIC (reference value: […] ug/ml); assay type: functional
[15] = test system: Candida tropicalis; assay: Additive antifungal activity against Candida tropicalis assessed as fractional inhibitory concentration index in presence of fluconazole; assay type: functional
[16] = test system: Candida albicans; assay: Antibiofilm activity against Candida albicans assessed as inhibition of biofilm formation at 0.5 to 5 times MIC by Alamar blue assay; assay type: functional, organism-based
[17] = test system: Cell membrane; assay: Induction of cell membrane permeabilization in Candida albicans up to 6 times MIC by propidium iodide staining based fluorescence assay; assay type: subcellular
[18] = test system: Cell wall; assay: Induction of cell wall damage in Candida albicans; assay type: subcellular
[19] = test system: Cell wall; assay: Induction of cell wall damage in Candida tropicalis; assay type: subcellular
[20] = test system: Cell wall; assay: Induction of cell wall damage in Aspergillus fumigatus; assay type: subcellular
[21] = test system: Cell membrane; assay: Induction of cytoplasmic membrane depolarization in Candida albicans by diSC3(5)-dye based assay; assay type: subcellular
[22] = test system: Cell membrane; assay: Induction of cell membrane disruption in Candida albicans assessed as increase in protein leakage by Bradford assay; assay type: subcellular
[23] = test system: Cell membrane; assay: Induction of cell membrane destruction in Candida albicans assessed as reduction in LDH activity at MIC relative to control; assay type: subcellular; design: scale not given: the % may be the effect or the level left
[24] = test system: Cell membrane; assay: Induction of cell membrane destruction in Candida albicans assessed as reduction in LDH activity at 4 times MIC relative to control; assay type: subcellular; design: scale not given: the % may be the effect or the level left
[25] = test system: Candida albicans; assay: Antifungal activity against Candida albicans assessed as reduction in metabolic activity at 0.5 to 6 times MIC by resazurin assay; assay type: functional, organism-based
[26] = test system: Candida albicans; assay: Induction of oxidative stress in Candida albicans assessed as increase in ROS generation by […] probe based assay; assay type: functional, organism-based
[27] = test system: Candida albicans; assay: Induction of reactive nitrogen species generation in Candida albicans assessed as increase in NO level at 6 times MIC by Greiss reagent assay relative to control; assay type: functional
[28] = test system: Candida albicans; assay: Induction of oxidative stress in Candida albicans assessed as decrease in cellular GSH level; assay type: functional, organism-based

SMILES: CCOC(=O)CN1CCN(c2ncnc3c2ncn3CC(=O)c2nccs2)CC1
- MIC [1]: 1 µg/mL (≈ 2.41 µM)
- MIC [2]: 16 µg/mL (≈ 38.5 µM)
- MIC [3]: 8 µg/mL (≈ 19.3 µM)
- MIC [4]: 16 µg/mL (≈ 38.5 µM)
- MIC [5]: 8 µg/mL (≈ 19.3 µM)
- HC50 [6]: > 256 µg/mL
- hemolysis at 1 x MIC [7]: 2.6%
- hemolysis at 8 x MIC [8]: 3.8%
- Activity [9]: > 60%
- Activity [10]: Toxic
- Activity [11]: Active
- MIC [12]: 8 µg/mL
- fractional inhibitory concentration index (FICI) [13]: 0.56
- MIC [14]: 0.0625 µg/mL
- fractional inhibitory concentration index (FICI) [15]: 1.02
- inhibition [16]: Active
- Activity [17]: Active
- Activity [18]: Active
- Activity [19]: Active
- Activity [20]: inactive
- Activity [21]: Active
- Activity [22]: Dose-Dependent Effect
- Activity [23]: 30%
- Activity [24]: 50%
- Activity [25]: Active
- Activity [26]: Dose-Dependent Effect
- fold change (FC) [27]: 3.6
- Activity [28]: Active
